Measured values taken from paper PMC6222802 (Molecules : A Journal of Synthetic Chemistry and Natural …, 2018).

Legend:
MCF-7 cells = test: cells; conditions: Homo sapiens, MCF7, 48 h, read-out: IC50, MCF-7
L929 cells = test: cells; conditions: Mus musculus, L929, 48 h, read-out: IC50, L929
H22 cells [1] = test: Cell cycle analysis by flow cytometry (PI); format: cell-based; conditions: 3 μM, 48 h; for Distribution (%) G2/M: control 12.26%; for percentage of G1-phase cells: control 15.32%; for percentage of S-phase cells: control 72.42%
Description: To determine whether the suppression of cell growth by the compounds was caused by a cell-cycle effect, we used a cell cycle analysis kit to detect the DNA content of cell nuclei.
H22 cells were treated with 7a–7e at 3 μM at 37 °C for 48 h and then cells were harvested, centrifuged, resuspended and fixed in 70% EtOH overnight at 4 °C. The fixed cells were digested by RNase A (0.25 mg·mL^−1) at 37 °C for 30 min, and stained with PI (50 μg·mL^−1) in the dark at room temperature for 30 min. The distribution of the cell cycle was analyzed by Flow Cytometer.

K562 cells = test: cells; conditions: Homo sapiens, K562, 48 h, read-out: IC50, K562
H22 cells [2] = test: cells; conditions: Mus musculus, H22, 48 h, read-out: IC50, H22
H22 tumor bearing mice = test: Antitumor activity and toxicity in vivo in H22 tumor bearing mice; design: species or system KM mice; conditions: for tumor inhibition rate: 50 mg/kg, administered for 6 days, H22 tumor bearing mice; for toxicity, organ-to-body weight ratios (organ indexes: thymus, brain, lung, heart, liver, kidney, spleen) compared with NS: 50 and 30 mg/kg (CP 50 mg/kg); for body weight change compared with NS group: even at the dose of 50 mg/kg
H22 cells [3] = tested on: H22 cells
S180 cells [4] = test: cells; conditions: S-180, 48 h, read-out: IC50, S180
S180 cells [5] = tested on: S180 cells
LoVo cells = test: cells; conditions: Homo sapiens, 48 h, read-out: IC50, LoVo

Structure (SMILES)	IC50 (MCF-7 cells) [µM]	IC50 (L929 cells) [µM]	Distribution (%) G2/M (H22 cells [1]) [%]	percentage of G1-phase cells (H22 cells [1]) [%]	percentage of S-phase cells (H22 cells [1]) [%]	IC50 (K562 cells) [µM]	IC50 (H22 cells [2]) [µM]	tumor inhibition rate (H22 tumor bearing mice) [%]	toxicity, organ-to-body weight ratios (organ indexes: thymus, brain, lung, heart, liver, kidney, spleen) compared with NS (H22 tumor bearing mice)	body weight change compared with NS group (H22 tumor bearing mice)	SI ** selectivity index (SI) of H22 against L929 (H22 cells [3])	kinetics of growth inhibition, H22 (H22 cells [3])	IC50 (S180 cells [4]) [µM]	SI * selectivity index (SI) of S180 against L929 (S180 cells [5])	kinetics of growth inhibition, S180 (S180 cells [5])	IC50 (LoVo cells) [µM]
COC(=O)CCC[C@@H]1[C@H]2CCCN3CCC[C@H](CN1P(=O)(Oc1ccc(Cl)cc1)N(CCCl)CCCl)[C@@H]23 (stereo partly shown) [Compound 7c]	31.9 ± 2.45	162 ± 4.12	6.30	51.22	42.48	18.1 ± 1.34	1.01 ± 0.08	54.83	induced low toxicity	did not significantly cause body weight change	160.80	concentration-dependent and time-dependent	2.02 ± 0.17	80.40	concentration-dependent and time-dependent	33.4 ± 2.45
O=P1(N(CCCl)CCCl)NCCCO1 (stereo not shown) [CP, cyclophosphamide, reference compound]								72.22	significantly increase the liver and spleen indexes							
COC(=O)CCC[C@@H]1[C@H]2CCCN3CCC[C@H](CN1P(=O)(Oc1ccc(OC)cc1)N(CCCl)CCCl)[C@@H]23 (stereo partly shown) [Compound 7b]	38.9 ± 2.56	104 ± 3.2	12.70	15.44	71.86	54.5 ± 2.32	2.65 ± 0.25				39.36		3.5 ± 0.35	29.80		46.2 ± 2.32
COc1cccc2c1C(=O)c1c(O)c3c(c(O)c1C2=O)C[C@@](O)(C(=O)CO)C[C@@H]3O[C@H]1C[C@H](N)[C@H](O)[C@H](C)O1 [Dox, Doxorubicin, reference compound]	0.44 ± 0.08	0.23 ± 0.08				17.2 ± 1.78	36.5 ± 2.56						29.2 ± 2.07			0.15 ± 0.02
O=C1CCC[C@@H]2[C@H]3CCCN4CCC[C@H](CN12)[C@@H]34 [Compound 1, Sophoridine, reference compound]	> 100	> 100				> 100	> 100						> 100			> 100
COC(=O)CCC[C@@H]1[C@H]2CCCN3CCC[C@H](CN1P(=O)(Oc1ccc([N+](=O)[O-])cc1)N(CCCl)CCCl)[C@@H]23 (stereo partly shown) [Compound 7d]	34.6 ± 2.21	105 ± 3.1	15.66	16.10	68.24	20.3 ± 2.05	1.8 ± 0.12				58.51	concentration-dependent and time-dependent	2.01 ± 0.14	52.40	concentration-dependent and time-dependent	32.2 ± 2.21
COC(=O)CCC[C@@H]1[C@H]2CCCN3CCC[C@H](CN1P(=O)(Oc1ccc(C)cc1)N(CCCl)CCCl)[C@@H]23 (stereo partly shown) [Compound 7a]	61.2 ± 2.21	181 ± 4.56	15.15	32.02	52.83	27.1 ± 2.51	2.17 ± 0.13	46.95	induced low toxicity	did not significantly cause body weight change	83.10		2.89 ± 0.23	62.51		62.5 ± 2.32
COC(=O)CCC[C@@H]1[C@H]2CCCN3CCC[C@H](CN1P(=O)(Oc1ccccc1)N(CCCl)CCCl)[C@@H]23 (stereo partly shown) [Compound 7e]	86.6 ± 2.67	139 ± 3.35	11.75	17.21	71.04	32.7 ± 2.56	1.85 ± 0.16	47.78	induced low toxicity	did not significantly cause body weight change	74.89		3.65 ± 0.25	37.96		70 ± 2.78
